The source of these data is patent US7341859B2, “ADH from Rhodococcus erythropolis” (Degussa AG, priority 2002, dated 2008).

For one series, the system named is ADH from R. erythropolis. Put plainly: Enantioselective oxidation of (R,S)-phenylethanol with ADH and NADH oxidase, chiral GC. The format is biochemical, Rhodococcus erythropolis. Particulars: after 2 h; for oxidation of the enantiomer: 10 mM (R,S)-phenylethanol. As for the experimental part: By means of enantioselective oxidation of an alcohol, an enantiomer-enriched or enantiomer-pure alcohol, for example, can be obtained from a racemate.
Samples were taken after 0, 1 and 2 h and separated by gas chromatography (column: CP-Chirasil-DEX CB length: 25 m, diameter: 25 μm (Chrompack). Temperature programme: 5 min at 60° C., then 5° C./min up to 190° C.; column flow rate 1.3 ml/min; gas: helium. In this case, both the acetophenone peak (product; retention time=16.9 min), and also the enantiomers of phenylethanol (reactants; retention times R-phenylethanol=20.8 min and S-phenylethanol=21.1 min) were recorded.

Series [1] relates to alcohol dehydrogenase from R. erythropolis (RE-ADH, new ADH expr. in E. coli). Description: Relative/specific activity of substrates with the new ADH from R. erythropolis (photometric NADH test). Format: biochemical, Rhodococcus erythropolis. As for the experimental part:
In this case, as is normal, the measured activity for one compound is set at 100% and the activity/activities of the other compound(s) is determined in relation thereto. From the relative activities when compared with other substrates, it can then be recognised whether such another substrate is accepted to a greater or lesser extent.
A first purification can be achieved by anion exchange chromatography (MonoQ-Material, Pharmacia) (mobile buffer: 50 mM TEA buffer, pH 7.0; elution with a NaCl gradient of 0-1 M).
For the activity test, the cells were harvested (15 min centrifuging at 14000 rpm, 4° C.) and degraded after resuspension with 100 mM KPi buffer, pH 6.0 (1.5 ml of buffer per 1 g of cells). For the purposes of degradation, the suspension was treated with ultrasound (2×30 sec. power 100%, pulse 50), then the cell broth was centrifuged. The supernatant liquid is the soluble crude extract, the sediment is the insoluble fraction.
For a comparison using relative activities, the activity of the two enzymes was given with respect to phenylacetaldehyde=100%.
In this case, the relative activity is given with respect to the activity measured for acetophenone.

Series [2] has as its system aldehyde reductase from Corynebacterium sp. Put plainly: Activity of substrates with aldehyde reductase from Corynebacterium sp. (Itoh et al.). The format is biochemical, Corynebacterium sp. ST-10. As to conditions: Corynebacterium enzyme. An excerpt: When comparing the gene sequence for ADH from R. erythropolis with sequences in the databases, it was shown that RE-ADH has a high degree of homology with an aldehyde reductase from Coyrnebacterium sp. In the publication on aldehyde reductase, a number of biochemical properties of this enzyme are described (Itoh, N., R. Morihama, J. Wang, K. Okada and N. Mizuguchi (1997), Purification and characterisation of phenylacetaldehyde reductase from a styrene-assimilating Corynebacterium strain, ST-10, Appl. Environ. Microbiol. 63: 3783-378). Some of the (aldehyde) substrates described in that publication were therefore also converted using RE-ADH and compared using the relative activities of the reductase. […] Further comparisons of the two enzymes using the published data material are not meaningful because the enzyme from Corynebacterium was tested exclusively with phenylacetaldehyde as substrate, but RE-ADH has hitherto been characterised using p-Cl-acetophenone.
A comparison of RE-ADH with the aldehyde reductase from Corynebacterium sp. with regard to the activity for acetophenone reduction and a few aldehydes. Data on the enzyme from Corynebacterium were taken from the publication by Itoh et al. (see above), data on RE-ADH are our own measurements (homogeneous=very pure homogeneous enzyme). […]

Series [3] has the same test system. Particulars: phenylacetaldehyde = 100%; cited from earlier work.
In series [4] the test system is alcohol dehydrogenase from R. erythropolis. Put plainly: Preparative reduction of keto-compounds with ADH and formate dehydrogenase regeneration, chiral GC. The format is biochemical, Rhodococcus erythropolis. As for the experimental part: The product is analysed by means of gas chromatography, wherein the stationary phase in the GC column is capable of separating enantiomeric alcohols so that information on the ee values of the enzymatically prepared product can be obtained.
Such a mixture for reduction contains: • 10 mM keto-compound • 0.5 mM NAD • 100 mM Na formate • 1 U/ml formate dehydrogenase
At the times 0, 5 min and 10 min, samples are taken (100 μl), extracted with 100 μl of chloroform and the chloroform phase is analysed using gas chromatography.
Column: CP-Chirasil-DEX CB length: 25 m, diameter: 25 μm (Chrompack). Temperature programme: 5 min at 60° C., then 5° C./min up to 190° C. (for hexanone/hexanol: 30 min at 60° C., then 10° C./min to 195° C.). Column flow 1.3 ml/min; gas:helium
p-Cl-acetophenone, acetophenone, ethyl 2-oxobutyrate, 2-hexanone and 2-heptanone.

The test system of series [5] is whole cells of R. erythropolis. Put plainly: Continuous conversion with alginate-immobilised whole cells in a column. The format is cell-based, Rhodococcus erythropolis. Particulars: 1.5 mM, 2 ml per h. The protocol:
Our results with whole cells of R. erythropolis indicate that this strain contains several ADHs, including at least one with opposite enantioselectivity. […] However, this high ee value is retained for only about 10 h (about 3 volume changes), then the ee value drops drastically while the conversion remains at the same high level.

Series [6] concerns ADH in accordance with DE 4209022. Particulars: relative to p-methylacetophenone = 100%, cited from earlier work.
The subject of series [7] is ADH in accordance with J. Peters, Dissertation. Particulars: relative to methyl acetoacetate = 100%, cited from earlier work.
In the next series the test system is CC(=O)c1ccc(Cl)cc1. Description: purified protein, by the assay type. As to conditions: other: reduction reaction.
Another series has as its system C[C@H](O)c1ccc(Cl)cc1. Description: purified protein, by the assay type. Particulars: other: oxidation reaction.
Substrate in series [8]: NC(=O)c1ccc[n+]([C@@H]2O[C@H](COP(=O)([O-])OP(=O)(O)OC[C@H]3O[C@@H](n4cnc5c(N)ncnc54)[C@H](O)[C@@H]3O)[C@@H](O)[C@H]2O)c1
Description: purified protein, by the assay type. As to conditions: other: oxidation reaction.

Like-named read-outs stand apart in the source and are kept apart here.

For `C[C@@H](O)c1ccccc1` [(R)-phenylethanol], in the series with ADH from R. erythropolis, the “ee value of the remaining enantiomer” value is > 99% and the “oxidation of the enantiomer” value is listed as “remained untouched”.

Consider `C[C@H](O)c1ccccc1` [(S)-phenylethanol], for which the “oxidation of the enantiomer” value with ADH from R. erythropolis is given as “fully oxidised”.

`CCCCCCCC=O` [Caprylic aldehyde]: the “activity towards caprylic aldehyde as multiple of that towards acetophenone (so in the source)” value in [1] (RE-ADH) was “about 5 times”. The relative activity is on record as 522% in [1] (phenylacetaldehyde = 100%) and 1220% in [3]. Besides, the “activity towards caprylic aldehyde as multiple of that with respect to acetophenone (so in the source)” value in [2] is given as 12 times.

As to `CC(=O)c1ccc(Cl)cc1` [p-Cl-acetophenone, p-chloroacetophenone], the relative activity in series [1] (phenylacetaldehyde = 100%) was 288%; in [1] (relative to methyl acetoacetate = 100%, listed as drawing 9) it was 909%; in [1] (relative to methyl acetoacetate = 100%, listed as p-chloroacetophenone) it was 909%; in [1] (relative to p-methylacetophenone = 100%, listed as drawing 3) it was 189%; in series [1] (relative to p-methylacetophenone = 100%, listed as p-chloroacetophenone) it was 189%; in series [6] (listed as drawing 3), 81%. In addition, the relative activity in series [6] (listed as p-chloroacetophenone) is on record as 81%; in series [7] (listed as drawing 9) it was 100%; in [7] (listed as p-chloroacetophenone), 100%; in series [3], 338%. Moreover, the “Relative activity [%]” value in series [1] (relative to acetophenone = 100) amounted to 1198%. For the same molecule, the “Conversion after 10 min [%]” value in series [4] (10 mM keto-compound, 0.5 U/ml alcohol dehydrogenase) was >95%. In addition, the “enantiomeric form of the product of conversion by the new alcohol dehydrogenase” value in series [4] (also when used several times or at higher concentrations) was “enantiomerically pure”. Also, the “ee [%] of the product” value in series [4] (enzymatic reduction, chiral GC) was >99%. In [5] (after 25 h (about 9 volume changes)), the “ee of (S)-p-chloro-2-phenylethanol obtained” value turned out to be 70 % ee. For the same molecule, the “ee of the alcohol obtained” value in series [5] (after 50 h (about 18 volume changes)) was “about 5 % ee”.

On to RE-ADH (Rhodococcus erythropolis), for which the Km was 500 µM with CC(=O)c1ccc(Cl)cc1 and 280 µM in the series with C[C@H](O)c1ccc(Cl)cc1.

B1: RE-ADH (Rhodococcus erythropolis) (protein)
chain: MKAIQYTRIGAEPELTEIPKPEPGPGEVLLEVTAAGVCHSDDFIMSLPEEQYTYGLPLTLGHEGAGKVAAVGEGVEGLDIGTNVVVYGPWGCGNCWHCSQGLENYCSRAQELGINPPGLGAPGALAEFMIVDSPRHLVPIGDLDPVKTVPLTDAGLTPYHAIKRSLPKLRGGSYAVVIGTGGLGHVAIQLLRHLSAATVIALDVSADKLELATKVGAHEVVLSDKDAAENVRKITGSQGAALVLDFVGYQPTIDTAMAVAGVGSDVTIVGIGDGQAHAKVGFFQSPYEASVTVPYWGARNELIELIDLAHAGIFDIAVETFSLDNGAEAYRRLAAGTLSGRAVVVPGL
As to B1, the Michaelis constant (Km) in [8] was 82 µM.
